Here are results for 10 molecules from patent US12492188B2, “1H-benzo[D]imidazole derivatives as TLR9 inhibitors for the treatment of fibrosis” (BRISTOL-MYERS SQUIBB COMPANY, priority 2020, dated 2025).

What all share (format): cell-based
In one assay the target is T1, human TLR7 (Homo sapiens, UniProt Q9NYK1).
T1 construct: host or cells: HEK-Blue cells (HEK293-derived reporter line)
T1 sequence (Q9NYK1 27-1049): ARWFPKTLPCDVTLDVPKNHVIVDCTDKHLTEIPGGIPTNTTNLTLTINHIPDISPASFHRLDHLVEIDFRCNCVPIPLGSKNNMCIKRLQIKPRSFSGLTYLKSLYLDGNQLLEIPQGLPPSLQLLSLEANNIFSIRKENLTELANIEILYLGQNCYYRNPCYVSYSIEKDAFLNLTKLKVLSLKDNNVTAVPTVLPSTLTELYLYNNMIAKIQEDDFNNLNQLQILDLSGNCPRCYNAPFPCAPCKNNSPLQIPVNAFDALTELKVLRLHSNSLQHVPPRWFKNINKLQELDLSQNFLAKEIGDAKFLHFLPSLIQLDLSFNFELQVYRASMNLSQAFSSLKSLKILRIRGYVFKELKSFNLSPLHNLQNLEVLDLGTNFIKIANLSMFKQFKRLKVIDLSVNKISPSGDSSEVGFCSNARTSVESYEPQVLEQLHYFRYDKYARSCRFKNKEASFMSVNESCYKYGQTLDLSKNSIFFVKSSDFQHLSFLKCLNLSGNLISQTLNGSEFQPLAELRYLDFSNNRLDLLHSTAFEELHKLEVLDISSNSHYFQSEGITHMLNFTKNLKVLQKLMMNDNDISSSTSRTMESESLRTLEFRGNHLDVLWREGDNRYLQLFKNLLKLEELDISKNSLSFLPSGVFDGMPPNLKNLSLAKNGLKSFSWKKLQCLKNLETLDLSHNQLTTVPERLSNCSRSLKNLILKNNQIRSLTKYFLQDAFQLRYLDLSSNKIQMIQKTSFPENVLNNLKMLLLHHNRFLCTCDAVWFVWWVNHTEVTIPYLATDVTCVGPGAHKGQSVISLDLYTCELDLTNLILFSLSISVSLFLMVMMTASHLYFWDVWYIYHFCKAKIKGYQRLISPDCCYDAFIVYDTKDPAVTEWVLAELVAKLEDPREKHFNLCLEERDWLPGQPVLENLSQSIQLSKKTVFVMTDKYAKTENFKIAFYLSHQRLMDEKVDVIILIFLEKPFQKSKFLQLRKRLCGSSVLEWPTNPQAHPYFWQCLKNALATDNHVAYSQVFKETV
Description: TLR7 inhibition reporter assay (HEK-Blue cells, secreted embryonic alkaline phosphatase reporter). As to conditions: HEK-Blue cells overexpressing human TLR7, stimulated with gardiquimod 7.5 μM; read-out: TLR 7 IC50. In outline:
(§1)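 Steps: seed receptor-specific HEK-Blue cells; add compound, 0.05 nM–50 μM; wait 30 min at room temperature; add final gardiquimod 7.5 μM, R848 15.9 μM or ODN2006 5 nM for TLR7, TLR8 or TLR9; incubate 22 h at 37 °C; detect NF-κB/AP-1-driven SEAP.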
(Reporter assays use an easily measured gene product as a stand-in for the process of interest.)

A further assay has as its target T2, human TLR9 (Homo sapiens, UniProt Q9NR96).
T2 construct: host or cells: HEK-Blue cells (HEK293-derived reporter line)
T2 sequence (Q9NR96 26-1032): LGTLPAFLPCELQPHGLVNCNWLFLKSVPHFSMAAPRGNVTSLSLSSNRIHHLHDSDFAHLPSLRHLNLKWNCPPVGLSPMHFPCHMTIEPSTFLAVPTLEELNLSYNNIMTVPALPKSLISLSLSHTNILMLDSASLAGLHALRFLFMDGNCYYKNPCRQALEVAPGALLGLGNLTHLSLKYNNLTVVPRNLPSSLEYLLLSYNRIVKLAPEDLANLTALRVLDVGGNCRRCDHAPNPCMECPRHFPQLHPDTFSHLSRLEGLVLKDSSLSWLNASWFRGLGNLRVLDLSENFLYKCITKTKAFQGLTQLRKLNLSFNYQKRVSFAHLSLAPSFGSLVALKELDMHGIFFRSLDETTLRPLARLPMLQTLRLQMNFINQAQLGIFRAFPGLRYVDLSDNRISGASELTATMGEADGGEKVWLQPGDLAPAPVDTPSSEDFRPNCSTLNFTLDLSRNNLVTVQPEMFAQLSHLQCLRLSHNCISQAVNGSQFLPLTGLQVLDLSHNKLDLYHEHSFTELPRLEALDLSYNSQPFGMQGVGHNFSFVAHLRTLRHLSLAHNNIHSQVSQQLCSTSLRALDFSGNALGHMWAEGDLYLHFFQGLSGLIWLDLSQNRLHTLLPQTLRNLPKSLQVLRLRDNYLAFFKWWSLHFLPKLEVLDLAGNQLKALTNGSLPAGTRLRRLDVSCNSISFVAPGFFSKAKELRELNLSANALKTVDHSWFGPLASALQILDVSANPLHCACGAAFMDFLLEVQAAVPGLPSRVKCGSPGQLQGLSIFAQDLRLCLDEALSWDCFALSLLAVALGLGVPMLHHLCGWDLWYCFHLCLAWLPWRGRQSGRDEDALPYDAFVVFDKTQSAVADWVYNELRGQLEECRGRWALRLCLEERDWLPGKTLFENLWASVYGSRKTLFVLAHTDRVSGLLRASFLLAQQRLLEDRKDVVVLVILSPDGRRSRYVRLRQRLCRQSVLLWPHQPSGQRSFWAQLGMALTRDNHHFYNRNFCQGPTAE
Put plainly: TLR9 inhibition reporter assay (HEK-Blue cells, secreted embryonic alkaline phosphatase reporter). As to conditions: HEK-Blue cells overexpressing human TLR9, stimulated with ODN2006 5 nM. The procedure, abridged: as §1

Another assay concerns the target T3, human TLR8 (Homo sapiens, UniProt Q9NR97).
T3 construct: host or cells: HEK-Blue cells (HEK293-derived reporter line)
T3 sequence (Q9NR97 27-1041): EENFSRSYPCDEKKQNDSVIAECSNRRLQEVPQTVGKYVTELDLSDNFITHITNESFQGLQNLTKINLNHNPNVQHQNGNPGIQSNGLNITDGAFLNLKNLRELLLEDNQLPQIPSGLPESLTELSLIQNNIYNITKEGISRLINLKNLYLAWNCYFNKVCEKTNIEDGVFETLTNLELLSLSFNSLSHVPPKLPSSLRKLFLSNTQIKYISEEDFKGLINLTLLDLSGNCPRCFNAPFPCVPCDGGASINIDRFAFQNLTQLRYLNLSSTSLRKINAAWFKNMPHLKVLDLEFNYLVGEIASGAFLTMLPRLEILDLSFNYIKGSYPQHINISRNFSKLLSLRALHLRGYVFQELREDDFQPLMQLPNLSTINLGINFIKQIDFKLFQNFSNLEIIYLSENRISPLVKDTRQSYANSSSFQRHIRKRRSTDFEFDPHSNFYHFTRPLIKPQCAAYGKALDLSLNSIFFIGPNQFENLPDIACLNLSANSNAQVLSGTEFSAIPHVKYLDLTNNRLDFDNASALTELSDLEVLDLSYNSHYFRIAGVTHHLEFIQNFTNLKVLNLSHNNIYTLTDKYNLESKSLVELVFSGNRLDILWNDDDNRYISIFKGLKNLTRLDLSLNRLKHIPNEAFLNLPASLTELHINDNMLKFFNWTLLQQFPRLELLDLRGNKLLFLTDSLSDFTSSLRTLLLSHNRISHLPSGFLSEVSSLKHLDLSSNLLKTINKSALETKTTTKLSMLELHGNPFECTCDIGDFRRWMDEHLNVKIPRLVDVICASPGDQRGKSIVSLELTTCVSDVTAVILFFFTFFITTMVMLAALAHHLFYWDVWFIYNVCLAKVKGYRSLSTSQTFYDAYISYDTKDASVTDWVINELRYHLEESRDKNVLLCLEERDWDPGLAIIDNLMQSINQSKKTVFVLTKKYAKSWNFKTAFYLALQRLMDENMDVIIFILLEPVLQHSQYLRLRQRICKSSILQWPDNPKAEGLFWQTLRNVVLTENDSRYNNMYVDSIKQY
Description: TLR8 inhibition reporter assay (HEK-Blue cells, secreted embryonic alkaline phosphatase reporter). Particulars: HEK-Blue cells overexpressing human TLR8, stimulated with R848 15.9 μM; read-out: TLR 8 IC50. In outline: as §1

Setting [1] is: 22 hour incubation, reporter readout.

Like-named read-outs stand apart in the source and are kept apart here.

Take `Cc1cc(-c2ccc(C3CCN(C4CCN(C)CC4)CC3)cc2)cc2c1nc(-c1ccc(S(C)(=O)=O)cc1)n2C` [Example 400, 1,4-dimethyl-6-(4-(1′-methyl-[1,4′-bipiperidin]-4-yl)phenyl)-2-(4-(methylsulfonyl)phenyl)-1H-benzo[d]imidazole]: the IC50 was 1500 nM on human TLR7, 76 nM at human TLR9 (setting [1]), 76 nM at human TLR9 (read-out: TLR 9 IC50) and 1300 nM on human TLR8.

Turning to `Cc1cc(-c2ccc(C3CCN(C4CCN(C5CC5)CC4)CC3)cc2)cc2c1nc(-c1ccc(S(C)(=O)=O)cc1)n2C` [Example 401, 6-(4-(1′-cyclopropyl-[1,4′-bipiperidin]-4-yl)phenyl)-1,4-dimethyl-2-(4-(methylsulfonyl)phenyl)-1H-benzo[d]imidazole], the IC50 at human TLR7 was 2700 nM; against human TLR9 (setting [1]), 100 nM; at human TLR9 (read-out: TLR 9 IC50), 104 nM; at human TLR8, 1200 nM.

Turning to `Cc1cc(-c2ccc(CN3CCC(N4CCC4)CC3)cc2)cc2c1nc(-c1ccc(S(C)(=O)=O)cc1)n2C` [Example 402, 6-(4-((4-(azetidin-1-yl)piperidin-1-yl)methyl)phenyl)-1,4-dimethyl-2-(4-(methylsulfonyl)phenyl)-1H-benzo[d]imidazole], the IC50 on human TLR7 worked out at 600 nM; at human TLR9 (setting [1]), 3.9 nM; on human TLR9 (read-out: TLR 9 IC50), 3.9 nM; at human TLR8, 5800 nM.

Regarding `Cc1cc(-c2ccc(CN3CCC(N4CCC4)CC3)c(F)c2)cc2c1nc(-c1ccc(S(C)(=O)=O)cc1)n2C` [Example 403, 6-(4-((4-(azetidin-1-yl)piperidin-1-yl)methyl)-3-fluorophenyl)-1,4-dimethyl-2-(4-(methylsulfonyl)phenyl)-1H-benzo[d]imidazole], the IC50 at human TLR7 is 300 nM; at human TLR9 (setting [1]) it was 81 nM; at human TLR9 (read-out: TLR 9 IC50) it was 94 nM; on human TLR8 it was 15800 nM.

For the molecule `Cc1cc(-c2ccc(CN3CC4(C3)CN(C(C)C)C4)c(F)c2)cc2c1nc(-c1ccc(S(C)(=O)=O)cc1)n2C` [Example 404, 6-(3-fluoro-4-((6-isopropyl-2,6-diazaspiro[3.3]heptan-2-yl)methyl)phenyl)-1,4-dimethyl-2-(4-(methylsulfonyl)phenyl)-1H-benzo[d]imidazole], the IC50 on human TLR7 is 100 nM; against human TLR9 (setting [1]), 69 nM; on human TLR9 (read-out: TLR 9 IC50), 69 nM; at human TLR8, 7200 nM.

For `Cc1cc(-c2cc(F)cc(CN3CCC(N4CCCC4)CC3)c2)cc2c1nc(-c1ccc(S(C)(=O)=O)cc1)n2C` [Example 405, 6-(3-fluoro-5-((4-(pyrrolidin-1-yl)piperidin-1-yl)methyl)phenyl)-1,4-dimethyl-2-(4-(methylsulfonyl)phenyl)-1H-benzo[d]imidazole], the IC50 was 300 nM on human TLR7, 21 nM against human TLR9 (setting [1]), 21 nM at human TLR9 (read-out: TLR 9 IC50) and 900 nM on human TLR8.

With `Cc1cc(-c2cc(F)cc(CN3CCC(N4CCC4)CC3)c2)cc2c1nc(-c1ccc(S(C)(=O)=O)cc1)n2C` [Example 406, 6-(3-((4-(azetidin-1-yl)piperidin-1-yl)methyl)-5-fluorophenyl)-1,4-dimethyl-2-(4-(methylsulfonyl)phenyl)-1H-benzo[d]imidazole], the IC50 was found to be 600 nM at human TLR7, 130 nM on human TLR9 (setting [1]), 133 nM on human TLR9 (read-out: TLR 9 IC50) and 2000 nM at human TLR8.

For the molecule `Cc1cc(-c2cccc(CN3CCC(N4CCCC4)CC3)c2)cc2c1nc(-c1ccc(S(C)(=O)=O)cc1)n2C1CC1` [Example 407, 1-cyclopropyl-4-methyl-2-(4-(methylsulfonyl)phenyl)-6-(3-((4-(pyrrolidin-1-yl)piperidin-1-yl)methyl)phenyl)-1H-benzo[d]imidazole], the IC50 on human TLR7 was 800 nM; at human TLR9 (setting [1]) it was 46 nM; at human TLR9 (read-out: TLR 9 IC50) it was 46 nM; on human TLR8 it was 5000 nM.

On to `CS(=O)(=O)c1ccc(-c2nc3c(F)cc(-c4ccc(CN5CCC(N6CCCC6)CC5)cc4)cc3n2C2CC2)cc1` [Example 408, 1-cyclopropyl-4-fluoro-2-(4-(methylsulfonyl)phenyl)-6-(4-((4-(pyrrolidin-1-yl)piperidin-1-yl)methyl)phenyl)-1H-benzo[d]imidazole], for which the IC50 on human TLR7 stood at 1600 nM; at human TLR9 (setting [1]) it was 140 nM; on human TLR9 (read-out: TLR 9 IC50), 136 nM; on human TLR8 it was 900 nM.

As for `Cn1c(-c2ccc(S(C)(=O)=O)cc2)nc2c(F)cc(-c3ccc(CN4CCC(N5CCCC5)CC4)cc3)cc21` [Example 409, 4-fluoro-1-methyl-2-(4-(methylsulfonyl)phenyl)-6-(4-((4-(pyrrolidin-1-yl)piperidin-1-yl)methyl)phenyl)-1H-benzo[d]imidazole], the IC50 came to 1500 nM on human TLR7, 5.3 nM against human TLR9 (setting [1]), 5.3 nM on human TLR9 (read-out: TLR 9 IC50) and 1000 nM on human TLR8.

Usually IC50 stands for the concentration at which inhibition is half-maximal.
